In US4692517A, “C-3' acylaminooxy-7-[(2-aminothiazol-4-yl)-α-(substituted-oximino)acety l]cephalosporin derivatives” (American Home Products Corporation, priority 1986, dated 1987):
≈ marks a conversion by molar mass, not a printed value.

How the values were obtained:
Type in all cases: cell-based
[1] = system: Klebsiella pneunomiae KL-1; assay: Agar dilution MIC, Klebsiella pneunomiae KL-1; conditions: KL1, 18 hours at 35° C., read-out: Minimal Inhibitory Concentration (MIC)
Procedure: (§1) The compounds of the invention are tested for their antibacterial activity. The test is carried out as follows:
(§2) The organisms used in the test comprise the following:
(§3) Staphylococcus aureus (penicillin-sensitive and resistant), Pseudomonas aeruginosa, Escherichia coli, […] pneumoniae, Bordetella bronchiseptica, Proteus vulgaris, P. mirabilis, Acinetobacter calcoaceticus.
(§4) Test organisms may be added or deleted in order to reflect current clinical patterns of antibiotic susceptibility or shifts in pathogenic potential.
(§5) Organisms are normally grown for 18 hours in Brain Heart Infusion at 35° C. Cultures are adjusted with saline to MacFarland No. 1.5 standard prior to use.
(§6) Stock concentrations (e.g. 2,500 μg or units per ml) are prepared in a suitable vehicle. Two-fold dilutions are made. One ml quantities of each dilution are incorporated in 9 ml of the appropriate agar (e.g. Seed) in sterile Petri plates. The hardened surface is inoculated with test organisms by use of a Steers replicating device. The plates are incubated (e.g. 18 hours at 35° C.) and activity is determined.

[2] = system: Pseudomonas aeruginosa ATCC 27853; assay: Agar dilution MIC, Pseudomonas aeruginosa ATCC 27853; conditions: ATCC27853, 18 hours at 35° C., read-out: Minimal Inhibitory Concentration (MIC)
Procedure: as §1, §2, §3, §4, §5, §6

[3] = system: Escherichia coli ATCC 25922; assay: Agar dilution MIC, Escherichia coli ATCC 25922; conditions: ATCC25922, 18 hours at 35° C., read-out: Minimal Inhibitory Concentration (MIC)
Procedure: as §1, §2, §3, §4, §5, §6

[4] = system: Staphylococcus aureus ATCC 29213; assay: Agar dilution MIC, Staphylococcus aureus ATCC 29213; conditions: ATCC29213, 18 hours at 35° C., read-out: Minimal Inhibitory Concentration (MIC)
Procedure: as §1, §2, §3, §4, §5, §6

[5] = system: Streptococcus faecalis ATCC 29212; assay: Agar dilution MIC, Streptococcus faecalis ATCC 29212; conditions: Enterococcus faecalis, ATCC29212, 18 hours at 35° C., read-out: Minimal Inhibitory Concentration (MIC)
Procedure: as §1, §2, §3, §4, §5, §6

[6] = system: Serratia marcescens ATCC 13880; assay: Agar dilution MIC, Serratia marcescens ATCC 13880; conditions: ATCC13880, 18 hours at 35° C., read-out: Minimal Inhibitory Concentration (MIC)
Procedure: as §1, §2, §3, §4, §5, §6

[7] = system: Enterobacter cloacae ATCC 13047; assay: Agar dilution MIC, Enterobacter cloacae ATCC 13047; conditions: ATCC13047, 18 hours at 35° C., read-out: Minimal Inhibitory Concentration (MIC)
Procedure: as §1, §2, §3, §4, §5, §6

[8] = system: Proteus vulgaris A 84354 1; assay: Agar dilution MIC, Proteus vulgaris A 84354 1; conditions: A843541, 18 hours at 35° C., read-out: Minimal Inhibitory Concentration (MIC)
Procedure: as §1, §2, §3, §4, §5, §6

MIC [1]: 1 µg/mL (≈ 1.71 µM)
MIC [2]: 128 µg/mL (≈ 219 µM)
MIC [3]: 4 µg/mL (≈ 6.84 µM)
MIC [4]: 64 µg/mL (≈ 109 µM)
MIC [5]: 128 µg/mL (≈ 219 µM)
MIC [6]: 16 µg/mL (≈ 27.4 µM)
MIC [7]: 32 µg/mL (≈ 54.7 µM)
MIC [8]: 1 µg/mL (≈ 1.71 µM)
Structure (SMILES): CO/N=C(\C(=O)N[C@@H]1C(=O)N2C(C(=O)OC(C)(C)C)=C(CONC(=O)OC(C)(C)C)CS[C@H]12)c1csc(N)n1 [Example 1B, (6R,7R)-7-[[(Z)-(2-amino-4-thiazolyl)(methoxyimino)acetyl]amino]-3-[[[[(1,1-dimethylethoxy)carbonyl]amino]oxy]methyl]-8-oxo-5-thia-1-azabicyclo[4.2.0]oct-2-ene-2-carboxylic acid 1,1-dimethylethyl ester]
